Results from patent publication US10364256B2 (GlaxoSmithKline Intellectual Property Development Limited, priority 2015, dated 2019).

Key:
[1] = biological target: T1, full length Keap1 protein / full length NRF2 protein (Homo sapiens, UniProt Q14145); experiment: NRF2-Keap1 TR-FRET Assay; type: binding; conditions: 25 nM Keap1-FlagHis and 50 nM biotin-NRF2 added
T1 construct: full length NRF2 protein and full length Keap1 protein (Keap1 exists a dimer) are used; His
How it was run: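 Displacement of biotinylated full-length NRF2 from full-length Keap1 read by Eu/APC TR-FRET (665/615 nm) after 1 h detection at RT. Compound, 3-fold series, first incubated with Keap1 at 37 °C for 2.25 h, NRF2 then added at 4 °C for 1.25 h; pIC50 by four-parameter equation.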

[2] = biological target: T1, full length Keap1 protein / full length NRF2 protein; experiment: NRF2-Keap1 TR-FRET Low Protein Assay; type: binding; conditions: 1.25 nM Keap1 FlagHis and 2.5 nM biotin-NRF2 added
How it was run: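 Flag-tagged full-length Keap1 was preincubated with compound (3-fold series) for 2.25 h at 37 °C in Tris pH 8.0/MgCl2/NaCl/BSA/DTT/CHAPS. Biotin-Avi-NRF2 (added at 2.5 nM) was then bound for 1.25 h at 4 °C. Eu-streptavidin/anti-Flag-APC TR-FRET (665/615 nm) was read after 1 h at RT, and pIC50 came from a four-parameter fit.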

T1 sequence (Q14145 whole entry): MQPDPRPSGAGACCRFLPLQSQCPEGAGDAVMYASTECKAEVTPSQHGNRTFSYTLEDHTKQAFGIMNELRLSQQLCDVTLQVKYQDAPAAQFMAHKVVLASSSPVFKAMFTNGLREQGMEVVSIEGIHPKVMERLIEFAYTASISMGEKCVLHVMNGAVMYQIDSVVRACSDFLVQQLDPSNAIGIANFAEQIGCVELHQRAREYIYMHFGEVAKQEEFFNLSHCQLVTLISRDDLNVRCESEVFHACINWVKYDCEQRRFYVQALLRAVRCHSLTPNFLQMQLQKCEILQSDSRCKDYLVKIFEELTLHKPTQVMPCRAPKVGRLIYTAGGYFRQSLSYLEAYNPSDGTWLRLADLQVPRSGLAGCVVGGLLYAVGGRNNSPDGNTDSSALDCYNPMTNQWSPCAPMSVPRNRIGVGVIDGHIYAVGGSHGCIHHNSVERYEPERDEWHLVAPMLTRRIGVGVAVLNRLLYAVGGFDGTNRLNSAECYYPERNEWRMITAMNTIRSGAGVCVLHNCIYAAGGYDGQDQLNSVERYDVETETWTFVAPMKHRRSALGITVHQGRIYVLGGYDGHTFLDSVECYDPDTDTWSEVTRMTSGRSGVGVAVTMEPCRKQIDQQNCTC

SMILES	IC50 [1] [nM]	IC50 [2] [nM]
CC(Oc1cccc(-c2cccc(-n3ncc(C(=O)O)c3[C@@H]3C[C@H]3c3cn(C)nn3)n2)c1)C1CCCCC1 (relative stereo) [Example 249, 1-(6-(3-(1-Cyclohexylethoxy)phenyl)pyridin-2-yl)-5-(trans-2-(1-methyl-1H-1,2,3-triazol-4-yl)cyclopropyl)-1H-pyrazole-4-carboxylic Acid]	10 to 100	< 10
CCC1Cc2ccccc2CN(Cc2cccc(-c3cccc(-n4ncc(C(=O)O)c4[C@@H]4C[C@H]4c4cn(C)nn4)c3)c2)C1 (relative stereo) [Example 252, 1-(3′-((4-Ethyl-4,5-dihydro-1H-benzo[c]azepin-2(3H)-yl)methyl)-[1,1′-biphenyl]-3-yl)-5-(trans-2-(1-methyl-1H-1,2,3-triazol-4-yl)cyclopropyl)-1H-pyrazole-4-carboxylic Acid]	100 to 1000	10 to 100
C[C@@H]1CCC[C@H](C)N1C(=O)c1cccc(-c2cccc(-n3ncc(C(=O)O)c3[C@H]3C[C@@H]3c3cn(C)nn3)c2)c1F (single isomer, unassigned) [Example 261]	10 to 100	< 10
C[C@@H]1CCC[C@H](C)N1C(=O)c1cccc(-c2cccc(-n3ncc(C(=O)O)c3[C@@H]3C[C@H]3c3cn(C)nn3)c2)c1F (single isomer, unassigned) [Example 262]	10 to 100	< 10
CCCC1CCCCN1C(=O)c1cccc(-c2cccc(-n3ncc(C(=O)O)c3C3CC3)c2)c1F (stereo in doubt) [Example 54d, 5-Cyclopropyl-1-{3-[2-fluoro-3-((2R)-2-propylpiperidine-1-carbonyl)phenyl]phenyl}-1H-pyrazole-4-carboxylic Acid]	1000 to 10000	10 to 100
O=C(O)c1cnn(-c2cccc(-c3cccc(C(=O)N(CC4CC4)CC4CC4)c3F)c2)c1C1CC1 [Example 8, 1-(3-{3-[Bis(cyclopropylmethyl)carbamoyl]-2-fluorophenyl}phenyl)-5-cyclopropyl-1H-pyrazole-4-carboxylic Acid]	100 to 1000	10 to 100
CC(C)CC1CCCCN1C(=O)c1cccc(-c2cccc(-n3ncc(C(=O)O)c3C3CC3)c2)c1F (stereo not drawn) [Example 28, 5-Cyclopropyl-1-(3-{2-fluoro-3-[2-(2-methylpropyl)piperidine-1-carbonyl]phenyl}phenyl)-1H-pyrazole-4-carboxylic Acid]	100 to 1000	10 to 100
CC1CCCN(C(=O)c2cccc(-c3cccc(-n4ncc(C(=O)O)c4C4CC4)c3)c2F)CC1 (stereo not drawn) [Example 29, 5-Cyclopropyl-1-{3-[2-fluoro-3-(4-methylazepane-1-carbonyl)phenyl]phenyl}-1H-pyrazole-4-carboxylic Acid]	100 to 1000	10 to 100
CC1CCC(C)N(C(=O)c2cccc(-c3cccc(-n4ncc(C(=O)O)c4C4CC4)c3)c2F)C1 (stereo not drawn) [Example 30, 5-Cyclopropyl-1-{3-[3-(2,5-dimethylpiperidine-1-carbonyl)-2-fluorophenyl]phenyl}-1H-pyrazole-4-carboxylic Acid]	1000 to 10000	100 to 1000
O=C(O)c1cnn(-c2cccc(-c3cccc(C(=O)N4CCCC5CCCCC54)c3F)c2)c1C1CC1 (stereo not drawn) [Example 31, 5-Cyclopropyl-1-{3-[3-(decahydroquinoline-1-carbonyl)-2-fluorophenyl]phenyl}-1H-pyrazole-4-carboxylic Acid]	1000 to 10000	10 to 100
O=C(O)c1cnn(-c2cccc(-c3cccc(C(=O)N4CCCCC4C4CCCC4)c3F)c2)c1C1CC1 (stereo not drawn) [Example 33, 1-{3-[3-(2-Cyclopentylpiperidine-1-carbonyl)-2-fluorophenyl]phenyl}-5-cyclopropyl-1H-pyrazole-4-carboxylic Acid]	100 to 1000	10 to 100
O=C(O)c1cnn(-c2cccc(-c3cccc(C(=O)N4C5CCCC4CCC5)c3F)c2)c1C1CC1 [Example 34, 1-[3-(3-{9-azabicyclo[3.3.1]nonane-9-carbonyl}-2-fluorophenyl)phenyl]-5-cyclopropyl-1H-pyrazole-4-carboxylic Acid]	100 to 1000	10 to 100
O=C(O)c1cnn(-c2cccc(-c3cccc(C(=O)N4CCCC5(CCCC5)C4)c3F)c2)c1C1CC1 [Example 35, 1-[3-(3-{7-Azaspiro[4.5]decane-7-carbonyl}-2-fluorophenyl)phenyl]-5-cyclopropyl-1H-pyrazole-4-carboxylic Acid]	100 to 1000	10 to 100
O=C(O)c1cnn(-c2cccc(-c3cccc(C(=O)N4CCCCC4CCC(F)(F)F)c3F)c2)c1C1CC1 (stereo not drawn) [Example 38, 5-Cyclopropyl-1-(3-{2-fluoro-3-[2-(3,3,3-trifluoropropyl)piperidine-1-carbonyl]phenyl}phenyl)-1H-pyrazole-4-carboxylic Acid]	100 to 1000	10 to 100
CCC[C@@H]1CO[C@@H](C)CN1C(=O)c1cccc(-c2cccc(-n3ncc(C(=O)O)c3C3CC3)c2)c1F [Example 45, 5-cyclopropyl-1-(3-{2-fluoro-3-[(2S,5R)-2-methyl-5-propylmorpholine-4-carbonyl]phenyl}phenyl)-1H-pyrazole-4-carboxylic Acid]	100 to 1000	10 to 100
CC1CC(C)CN(C(=O)c2cccc(-c3cccc(-n4ncc(C(=O)O)c4C4CC4)c3)c2F)C1 (stereo not drawn) [Example 53, 5-Cyclopropyl-1-[3′-(3,5-dimethyl-piperidine-1-carbonyl)-2′-fluoro-biphenyl-3-yl]-1H-pyrazole-4-carboxylic Acid]	100 to 1000	10 to 100
CCC[C@@H]1CCCCN1C(=O)c1cccc(-c2cccc(-n3ncc(C(=O)O)c3C3CC3)c2)c1F [Example 54e, 5-Cyclopropyl-1-{3-[2-fluoro-3-((2-S)-2-propylpiperidine-1-carbonyl)phenyl]phenyl}-1H-pyrazole-4-carboxylic Acid]	1000 to 10000	100 to 1000
CCC[C@@H]1CCCCN1C(=O)c1cccc(-c2cccc(-n3ncc(C(=O)O)c3CCc3cn(C)nn3)c2)c1F [Example 55, (R)-1-(2′-Fluoro-3′-(2-propylpiperidine-1-carbonyl)-[1,1′-biphenyl]-3-yl)-5-(2-(1-methyl-1H-1,2,3-triazol-4-yl)ethyl)-1H-pyrazole-4-carboxylic Acid]	10 to 100	10 to 100
CC(C)Oc1cccc(-c2cccc(-n3ncc(C(=O)O)c3C3CC3c3cn(C)nn3)c2)c1 (stereo not drawn) [Example 59, 1-(3′-Isopropoxy-[1,1′-biphenyl]-3-yl)-5-(2-(1-methyl-1H-1,2,3-triazol-4-yl)cyclopropyl)-1H-pyrazole-4-carboxylic Acid]	100 to 1000	100 to 1000
CC1(C)CCc2cnn(-c3cccc(-c4cccc(-n5ncc(C(=O)O)c5C5CC5)c4)c3)c21 [Example 63, 5-Cyclopropyl-1-(3′-(6,6-dimethyl-5,6-dihydrocyclopenta[c]pyrazol-1(4H)-yl)-[1,1′-biphenyl]-3-yl)-1H-pyrazole-4-carboxylic Acid]	100 to 1000	10 to 100
CC1(C)CCc2cnn(-c3cccc(-c4cccc(-n5ncc(C(=O)O)c5C(F)(F)F)c4)c3)c21 [Example 250, 1-(3′-(6,6-Dimethyl-5,6-dihydrocyclopenta[c]pyrazol-1(4H)-yl)-[1,1′-biphenyl]-3-yl)-5-(trifluoromethyl)-1H-pyrazole-4-carboxylic Acid]	10000 to 100000	100 to 1000
C[C@@H]1CN(Cc2cccc(-c3cccc(-n4ncc(C(=O)O)c4[C@@H]4C[C@H]4c4cn(C)nn4)c3)c2)Cc2ccccc2O1 [Example 253]	100 to 1000	< 10
CCOC[C@@H]1CCCN1C(=O)c1cccc(-c2cccc(-n3ncc(C(=O)O)c3[C@@H]3C[C@H]3c3cn(C)nn3)c2)c1F [Example 267]	10 to 100	< 10
CCOC[C@H]1CCCN1C(=O)c1cccc(-c2cccc(-n3ncc(C(=O)O)c3[C@@H]3C[C@H]3c3cn(C)nn3)c2)c1F [Example 268]	10 to 100	< 10
